Assay [1] concerns A2780S and A2780CP cells. The experiment in a line: Percent apoptotic nuclei after cisplatin treatment of transfected cells. Type of assay: cell-based. As to the method: FIGS. 4(A)-(D) is a composite figure showing modulation of BAD-protein phosphorylation status influences cisplatin sensitivity. OVCA cell lines (A) A2780S and (B) A2780CP were transfected with Flag vectors expressing wild-type BAD (WT) or BAD harboring serine (S) to alanine point mutations in serine-112, -136, or -155(S112A, S136A, S155A). These S to A phosphorylation site mutations prevent phosphorylation of the BAD protein. Transfected cells were treated with vehicle or 1 μM (A2780S) or 10 μM (A2780CP) cisplatin for 48 hours and evaluated for the presence of apoptotic nuclei. (C) Western blot showing depletion of PP2C and PKA by siRNA. Controls included a non-targeting siRNA (NT). GAPDH was used as a loading control. (D) Percent apoptotic nuclei in A2780S cells in the presence of 1 μM cisplatin after siRNA depletion of PKA and PP2C. Error bars indicate standard error of the mean.
Morphologic assessment of condensed chromatin and fragmented DNA quantified percent apoptotic nuclei. Cells were fixed in 4% paraformaldehyde, and nuclei were stained with bis-benzimide trihydrochloride (0.5 μg/ml; Molecular Probes) and quantified using fluorescence microscopy (Marchion, et al., Synergistic interaction between histone deacetylase and topoisomerase II inhibitors is mediated through topoisomerase IIbeta. Clin Cancer Res 2005; 11:8467-8475).
Cells were transfected with siRNA drawn against different BAD pathway proteins. RNA duplexes for PP2C/PPM1A (s10909 from ABI), cAMP-dependent protein kinase (PKA; 6406 from Cell Signaling Technology, Inc., Danvers, Mass.), and vectors containing mutated BAD (pFlag-600) were transfected using the Nucleofector transfection kit, with non-targeting Silencer negative control #2 siRNA (Applied Biosystems, Inc., Foster City, Calif.), according to manufacturer's protocols (Amaxa GmbH, Koeln, Del.). The role of pBAD (serine-155) in cisplatin sensitivity was further evaluated in A2780S cells by depletion of PKA and PP2C/PPM1A using siRNA.

The test system of assay [2] is OVCA cell lines (A2780S, A2780CP, A2008, C13). Nature of the assay: CellTiter-96 MTS proliferation assay quantifying cisplatin-resistance after serial cisplatin treatment. Type of assay: cell-based. The note with it: cells after serial in vitro cisplatin-treatment/expansion cycles vs cells prior to serial cisplatin treatment. The source says: FIGS. 3(A)-(D) are a series of graphs showing BAD-protein phosphorylation is associated with platinum resistance. Cisplatin EC50 so results and percent expression of phosphorylated-BAD at serine-155 (P-BAD155), non-phosphorylated BAD (NP-BAD155), total BAD, and PP2C (PPM1A) in (A) A2780S; (B) A2780CP; (C) A2008; and (D) C13 ovarian cancer cell lines measured by MTS and immunofluorescence, respectively.
Cell lines were induced for platinum resistance. […] Both cisplatin-resistance and genome-wide expression changes were measured serially in each cell line at baseline and after 3 and 6 cisplatin-treatment/expansion cycles. Cisplatin-resistance was quantified using CellTiter-96 MTS proliferation assays (Thermo Fisher Scientific Inc., Waltham, Mass.) and analyzed genome-wide expression using Affymetrix Human U133 Plus 2.0 GeneChips (Affymetrix, Inc., Santa Clara, Calif.) as previously described (Boren, et al., MicroRNAs and their target messenger RNAs associated with ovarian cancer response to chemotherapy. Gynecol Oncol 2009; 113:249-255; Bild, et al., Oncogenic pathway signatures in human cancers as a guide to targeted therapies. Nature 2006; 439:353-357) (Gene Expression Omnibus (GEO) accession number GSE23553).

For `N.N.[Cl][Pt][Cl]` [cisplatin, cis-diammine-dichloroplatinum], the cisplatin-induced apoptosis result is listed as “increased cisplatin-induced apoptosis” in assay [1] (A2780S and A2780CP transfected with BAD[S136A], BAD[S155A] vs wild-type BAD, 1 μM (A2780S) or 10 μM (A2780CP) cisplatin, 48 hours); “increased cisplatin-induced apoptosis” in assay [1] (A2780S, siRNA depletion of PKA vs non-targeting control siRNA, 1 μM cisplatin); “decreased cisplatin-induced apoptosis” in assay [1] (A2780S, siRNA depletion of PP2C/PPM1A, 1 μM cisplatin). Moreover, the cisplatin sensitivity result in assay [1] (cells transfected with BAD[S112A], 1 μM (A2780S) or 10 μM (A2780CP) cisplatin, 48 hours) is reported as “no effect on cisplatin sensitivity”. Also, the “cisplatin EC50” value in assay [2] is “higher cisplatin EC50 values”.

(Values after patent publication US9528982B2, “Bad phosphorylation determines ovarian cancer chemo-sensitivity and patient survival” (H. Lee Moffitt Cancer Center and Research Institute, Inc., priority 2011, dated 2016).)
